Test results from PMC7226045, “Ensartinib (X-396) Effectively Modulates Pharmacokinetic Resistance Mediated by ABCB1 and ABCG2 Drug Efflux Transporters and CYP3A4 Biotransformation Enzyme” (Cancers, 2020).

What was measured:
CYP3A4 = CYP3A4 (Homo sapiens, UniProt P08684); experiment: Inhibition of CYP3A4 in intact HepG2-CYP3A4 cells (P450-Glo, luciferin-IPA); type: cell-based; set-up: expressed in transfected cells; host or cells: HepG2-CYP3A4; settings: luciferin-IPA 2 µM, 45 min, normalized to viability, read-out: IC50, inhibition of CYP3A4 in enzyme-overexpressing HepG2 cells
Procedure: A cell-based method using the P450-Glo CYP3A4 Assay and Screening System with Luciferin-IPA together with the CellTiter-Glo Luminescent Cell Viability Assay was used to measure CYP3A4 inhibition in intact HepG2-CYP3A4 cells [27]. HepG2-CYP3A4 cells were seeded on a transparent 96-well plate at a density of 8.0 × 10^4 cells/well and cultured for 24 h. […] After a 10 min pre-incubation under standard conditions, the CYP3A4 substrate luciferin-IPA was quickly added to all cells other than background samples at a final concentration of 2 µM and the plates were then incubated for 45 min at room temperature. After incubation, the plates were placed on ice and some of the culture media from the cells was transferred to an opaque white 96-well plate and mixed with Luciferin Detection Reagent in a ratio of 1:1 (v/v). The resulting solution was incubated for 20 min at room temperature, then the samples’ luminescence was measured using a microplate reader (Infinite M200 Pro, Tecan, Männedorf, Switzerland) with an integration time of 250 ms. The remaining media was separated from the cells, then 35 µL of pure Opti-MEM was added and the resulting mixture was incubated for 30 min at room temperature. […] Luminescence (which correlates with cell viability) was monitored under conditions identical to those used in the previous step.

[1] = XTT proliferation / drug combination assay, HL60-ABCG2; type: cell-based, human; settings: human, HL60-ABCG2 cells, 48 h, XTT, read-out: IC50, sensitivity to ensartinib
Procedure: (§1) The MTT method is not readily adapted for use with suspension cell cultures, therefore the XTT assay was used to assess the proliferation of HL60 cells. Briefly, HL60-par, HL60-ABCB1, HL60-ABCG2, and HL60-ABCC1 cells were seeded at 2 × 10^4 cells/well in 96-well culture plates. Immediately after seeding, dilutions of the tested drugs or drug combinations were added to the cells. The plates were then incubated under standard conditions (37 °C, 5% CO2) for 48 h, after which XTT solution in PBS (1 mg/mL) and phenazine methosulfate (7.50 µg/mL) were added to the cells and the plates were incubated for another 5 h. Finally, the cells’ absorbance was measured at 450 nm using a microplate reader (Infinite M200, Tecan, Salzburg, Austria). This method was used to assess the effect of ABC transporters on sensitivity to ensartinib and in drug combination assays.
(§2) Experiments focusing on the modulation of ABC transporter-mediated resistance were performed as described previously. The parent MDCKII and HL60 cells and their ABCB1-, ABCG2-, and ABCC1-overexpressing counterparts were seeded at the densities specified above onto 96-well culture plates and cultured for 24 h. The medium was subsequently replaced with serial dilutions of ensartinib alone or with various concentrations of a model MDR-susceptible cytostatic agent (daunorubicin or mitoxantrone) with or without 10 µM ensartinib. After 48 h incubation, the cells’ viability was determined as described above. In addition to performing IC50-shift analyses, the viability measurements were converted to FA (fraction of cells affected) values and the effects of drug combinations were quantified using the Chou-Talalay combination index (CI) method as implemented in CompuSyn 3.0.1 (ComboSyn Inc., Paramus, NJ, USA). The effects of concomitantly administered drugs were classified as synergistic (CI < 0.9), additive (0.9 < CI < 1.1), or antagonistic (CI > 1.1) based on the computed CI values.

HL60-ABCG2 cells = experiment: as above; type: cell-based, human
Procedure: as §1, §2

Sequence of CYP3A4 (P08684 whole entry): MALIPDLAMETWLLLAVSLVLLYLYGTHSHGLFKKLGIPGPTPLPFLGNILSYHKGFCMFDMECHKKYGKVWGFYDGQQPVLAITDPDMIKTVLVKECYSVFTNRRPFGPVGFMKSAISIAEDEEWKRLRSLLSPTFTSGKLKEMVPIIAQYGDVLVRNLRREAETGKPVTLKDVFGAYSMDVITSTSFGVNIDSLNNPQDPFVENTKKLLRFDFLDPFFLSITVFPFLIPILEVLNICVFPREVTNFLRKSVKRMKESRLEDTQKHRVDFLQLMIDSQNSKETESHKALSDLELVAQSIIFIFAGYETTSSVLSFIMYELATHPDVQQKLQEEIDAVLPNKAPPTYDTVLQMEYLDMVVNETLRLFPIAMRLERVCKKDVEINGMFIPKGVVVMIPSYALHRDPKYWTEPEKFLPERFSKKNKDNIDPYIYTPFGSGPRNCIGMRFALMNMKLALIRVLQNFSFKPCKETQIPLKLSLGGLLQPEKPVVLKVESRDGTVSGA

Structure (SMILES): C[C@@H]1CN(C(=O)c2ccc(NC(=O)c3cc(O[C@H](C)c4c(Cl)ccc(F)c4Cl)c(N)nn3)cc2)C[C@H](C)N1 [ensartinib, Ensartinib]
- IC50 (CYP3A4): 23.5 µM
- IC50 at 48 h [1]: 24.3 µM
- combination effect (Chou-Talalay combination index) (HL60-ABCG2 cells; 10 µM ensartinib with mitoxantrone): synergistic (synergistic (CI < 0.9))
- RR (reversal ratio) (HL60-ABCG2 cells; mitoxantrone, IC50 single drug / IC50 combined with 10 µM ensartinib): 18.6
